# According to ChEMBL document CHEMBL1909046, “DrugMatrix in vitro pharmacology data”:
# Tests used:
# [1] = DRUGMATRIX: Calcium Channel Type L, Dihydropyridine radioligand binding (ligand: [3H] Nitrendipine); format: cell membranes, Rattus norvegicus, Wistar, Cerebral cortex, Membrane; details: Not Active = under 50% inhibition at 10 µM
# Carbonic anhydrase 2 = Carbonic anhydrase 2 (Homo sapiens, UniProt P00918); test: DRUGMATRIX: Carbonic Anhydrase II enzyme inhibition (substrate: 4-Nitrophenyl acetate (4-NPA)); format: tissue-based; details: erythrocyte; Not Active = under 50% inhibition at 10 µM
# [2] = DRUGMATRIX: Imidazoline I2, Central radioligand binding (ligand: [3H] Idazoxan); format: cell membranes, Rattus norvegicus, Wistar, Cerebral cortex, Membrane; details: Not Active = under 50% inhibition at 10 µM
# [3] = molecular target: Kappa-type opioid receptor (Homo sapiens, UniProt P41145); test: DRUGMATRIX: Opiate kappa (OP2, KOP) radioligand binding (ligand: [3H] Diprenorphine); format: cell membranes, HEK293, Membrane; details: Not Active = under 50% inhibition at 10 µM
# [4] = DRUGMATRIX: Purinergic P2X radioligand binding (ligand: [3H] alpha, beta-Methylene-ATP); format: cell membranes, Oryctolagus cuniculus, New Zealand albino, Urinary bladder, Membrane; details: Not Active = under 50% inhibition at 10 µM
# [5] = molecular target: Vascular endothelial growth factor receptor 1 (Homo sapiens, UniProt P17948); test: biochemical; format: cell-based, HUVEC; details: huvec; note: in other assays of this panel Not Active means under 50% inhibition at 10 µM
# [6] = molecular target: T1, C-X-C chemokine receptor type 1 (Homo sapiens, UniProt P25024); note: in other assays of this panel Not Active means under 50% inhibition at 10 µM
# T1 sequence (P25024 whole entry): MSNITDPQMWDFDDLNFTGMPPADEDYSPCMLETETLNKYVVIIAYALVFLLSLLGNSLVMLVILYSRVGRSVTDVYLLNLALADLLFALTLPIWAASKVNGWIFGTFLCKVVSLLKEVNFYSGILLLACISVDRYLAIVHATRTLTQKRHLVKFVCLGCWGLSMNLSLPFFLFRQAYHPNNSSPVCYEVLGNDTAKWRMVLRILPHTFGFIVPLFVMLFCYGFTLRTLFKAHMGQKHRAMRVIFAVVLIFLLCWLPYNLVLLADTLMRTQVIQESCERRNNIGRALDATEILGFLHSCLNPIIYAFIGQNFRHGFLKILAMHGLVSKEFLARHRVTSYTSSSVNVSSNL
# Sequence of Vascular endothelial growth factor receptor 1 (P17948 whole entry): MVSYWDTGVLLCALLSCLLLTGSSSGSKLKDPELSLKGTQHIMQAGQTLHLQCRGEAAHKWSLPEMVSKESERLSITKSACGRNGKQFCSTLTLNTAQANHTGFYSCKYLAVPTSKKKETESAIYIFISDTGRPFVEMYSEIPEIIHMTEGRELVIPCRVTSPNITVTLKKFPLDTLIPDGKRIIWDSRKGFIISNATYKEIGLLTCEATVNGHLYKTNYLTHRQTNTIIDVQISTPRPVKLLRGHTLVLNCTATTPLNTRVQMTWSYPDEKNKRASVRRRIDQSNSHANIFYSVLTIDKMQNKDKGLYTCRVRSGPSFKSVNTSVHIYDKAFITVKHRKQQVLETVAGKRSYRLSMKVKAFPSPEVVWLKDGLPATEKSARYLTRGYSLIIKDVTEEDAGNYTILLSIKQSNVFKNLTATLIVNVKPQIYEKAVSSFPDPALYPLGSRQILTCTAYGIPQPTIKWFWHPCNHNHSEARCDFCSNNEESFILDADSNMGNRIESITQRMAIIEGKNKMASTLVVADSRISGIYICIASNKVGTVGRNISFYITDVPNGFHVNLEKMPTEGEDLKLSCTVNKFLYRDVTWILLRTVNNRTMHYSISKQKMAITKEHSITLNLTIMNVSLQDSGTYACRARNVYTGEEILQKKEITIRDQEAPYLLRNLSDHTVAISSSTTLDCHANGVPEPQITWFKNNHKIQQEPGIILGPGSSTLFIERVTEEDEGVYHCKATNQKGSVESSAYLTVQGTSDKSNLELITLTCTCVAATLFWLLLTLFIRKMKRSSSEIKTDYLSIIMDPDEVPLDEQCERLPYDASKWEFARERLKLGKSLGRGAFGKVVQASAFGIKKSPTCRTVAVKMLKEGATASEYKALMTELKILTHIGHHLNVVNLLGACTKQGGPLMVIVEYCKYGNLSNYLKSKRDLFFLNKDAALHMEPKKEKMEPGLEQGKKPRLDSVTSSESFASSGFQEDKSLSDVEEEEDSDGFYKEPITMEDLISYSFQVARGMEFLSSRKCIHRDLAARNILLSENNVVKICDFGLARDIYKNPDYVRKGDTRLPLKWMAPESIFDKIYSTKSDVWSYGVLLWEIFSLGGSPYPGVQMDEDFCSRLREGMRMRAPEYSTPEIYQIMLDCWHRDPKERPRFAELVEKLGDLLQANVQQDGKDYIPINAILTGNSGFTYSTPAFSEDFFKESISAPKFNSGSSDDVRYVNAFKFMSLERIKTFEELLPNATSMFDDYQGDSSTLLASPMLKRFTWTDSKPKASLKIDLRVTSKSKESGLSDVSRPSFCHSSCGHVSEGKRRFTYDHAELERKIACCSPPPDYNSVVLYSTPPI
# Sequence of Kappa-type opioid receptor (P41145 whole entry): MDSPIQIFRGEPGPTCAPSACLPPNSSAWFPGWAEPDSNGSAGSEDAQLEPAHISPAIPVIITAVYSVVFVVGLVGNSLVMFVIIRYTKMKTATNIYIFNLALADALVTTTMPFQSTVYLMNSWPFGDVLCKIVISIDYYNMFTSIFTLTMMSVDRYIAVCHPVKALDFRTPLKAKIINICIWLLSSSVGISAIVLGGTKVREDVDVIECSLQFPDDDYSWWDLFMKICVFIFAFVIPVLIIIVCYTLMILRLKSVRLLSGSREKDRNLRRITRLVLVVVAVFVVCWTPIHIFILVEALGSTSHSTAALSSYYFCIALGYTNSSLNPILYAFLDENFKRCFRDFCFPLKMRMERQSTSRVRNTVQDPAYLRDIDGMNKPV
SMILES,IC50 [1],Ki [1],IC50 (Carbonic anhydrase 2),IC50 [2],Ki [2],IC50 ([3]; hek293),IC50 [4],Ki [4],IC50 [5],IC50 [6],IC50 ([2]; read-out: IC50),Ki ([2]; read-out: Ki),Ki [3],IC50 ([3]; read-out: IC50)
COC(=O)Nc1nc2ccc(C(=O)c3cccs3)cc2[nH]1 [NOCODAZOLE],Not Active,Not Active,Not Active,Not Active,Not Active,Not Active,Not Active,Not Active,Not Active,Not Active,,,,
N=C(N)NC(=O)Cc1c(Cl)cccc1Cl [GUANFACINE],Not Active,Not Active,Not Active,,,Not Active,Not Active,Not Active,Not Active,Not Active,45 nM,30 nM,,
CC(C)NCC(O)COc1cccc2[nH]ccc12 (stereo unspecified) [PINDOLOL],Not Active,Not Active,Not Active,Not Active,Not Active,Not Active,Not Active,Not Active,Not Active,Not Active,,,,
CC(=O)[C@@]1(O)CC[C@H]2[C@@H]3CCC4=CC(=O)CC[C@]4(C)[C@H]3CC[C@@]21C [HYDROXYPROGESTERONE],Not Active,Not Active,Not Active,Not Active,Not Active,Not Active,Not Active,Not Active,Not Active,Not Active,,,,
CC(=O)O[C@H]1C(=O)[C@@]2(C)[C@H]([C@H](OC(=O)c3ccccc3)[C@]3(O)C[C@H](OC(=O)[C@H](O)[C@@H](NC(=O)c4ccccc4)c4ccccc4)C(C)=C1C3(C)C)[C@]1(OC(C)=O)CO[C@@H]1C[C@@H]2O [PACLITAXEL],Not Active,Not Active,Not Active,Not Active,Not Active,Not Active,Not Active,Not Active,Not Active,Not Active,,,,
CCCOc1ccc(C(=O)OCCN(CC)CC)cc1N [PROPARACAINE],Not Active,Not Active,Not Active,Not Active,Not Active,Not Active,Not Active,Not Active,Not Active,Not Active,,,,
O=C(N/N=C/c1ccc([N+](=O)[O-])o1)c1cc([N+](=O)[O-])cc([N+](=O)[O-])c1O [NIFURSOL],Not Active,Not Active,Not Active,Not Active,Not Active,Not Active,Not Active,Not Active,Not Active,Not Active,,,,
CC(=O)Oc1ccc(C(c2ccc(OC(C)=O)cc2)c2ccccn2)cc1 [BISACODYL],Not Active,Not Active,Not Active,Not Active,Not Active,,Not Active,Not Active,Not Active,Not Active,,,975 nM,2440 nM
CN(C)[C@@H]1C(O)=C(C(N)=O)C(=O)[C@@]2(O)C(O)=C3C(=O)c4c(O)ccc(Cl)c4[C@@](C)(O)[C@H]3C[C@@H]12 [CHLORTETRACYCLINE],Not Active,Not Active,Not Active,Not Active,Not Active,Not Active,Not Active,Not Active,Not Active,Not Active,,,,
Nc1ccn([C@@H]2O[C@H](CO)[C@@H](O)[C@@H]2O)c(=O)n1 [CYTARABINE],Not Active,Not Active,Not Active,Not Active,Not Active,Not Active,Not Active,Not Active,Not Active,Not Active,,,,
CCC1(CCC(C)C)C(=O)NC(=O)NC1=O [AMOBARBITAL],Not Active,Not Active,Not Active,Not Active,Not Active,Not Active,Not Active,Not Active,Not Active,Not Active,,,,
C=CCc1ccc(O)c(OC)c1 [EUGENOL],Not Active,Not Active,Not Active,Not Active,Not Active,Not Active,Not Active,Not Active,Not Active,Not Active,,,,
COC1=C(OC)C(=O)C(CCCCCCCCCCO)=C(C)C1=O [IDEBENONE],Not Active,Not Active,Not Active,Not Active,Not Active,Not Active,Not Active,Not Active,Not Active,Not Active,,,,
Oc1cccc(O)c1O [PYROGALLOL],Not Active,Not Active,Not Active,Not Active,Not Active,Not Active,Not Active,Not Active,Not Active,Not Active,,,,
C[C@]12C=CC(=O)C=C1CC[C@@H]1[C@@H]2[C@@H](O)C[C@@]2(C)[C@H]1CC[C@]2(O)C(=O)CO [PREDNISOLONE],Not Active,Not Active,Not Active,Not Active,Not Active,Not Active,Not Active,Not Active,Not Active,Not Active,,,,
CC(=O)[C@H]1[C@H](C#N)C[C@H]2[C@@H]3CC=C4C[C@@H](O)CC[C@]4(C)[C@H]3CC[C@@]21C [PREGNENOLONE CARBONITRILE],Not Active,Not Active,Not Active,Not Active,Not Active,Not Active,Not Active,Not Active,Not Active,Not Active,,,,
CC(C(=O)O)c1cccc(Oc2ccccc2)c1 (stereo unspecified) [FENOPROFEN],Not Active,Not Active,Not Active,Not Active,Not Active,Not Active,Not Active,Not Active,Not Active,Not Active,,,,
NNc1nncc2ccccc12 [HYDRALAZINE],Not Active,Not Active,Not Active,Not Active,Not Active,Not Active,Not Active,Not Active,Not Active,Not Active,,,,
O=C1O[C@H]([C@@H](O)CO)C(O)=C1O [ASCORBIC ACID],Not Active,Not Active,Not Active,Not Active,Not Active,Not Active,Not Active,Not Active,Not Active,Not Active,,,,
NC(=O)C[S+]([O-])C(c1ccccc1)c1ccccc1 (stereo unspecified) [MODAFINIL],Not Active,Not Active,Not Active,Not Active,Not Active,Not Active,Not Active,Not Active,Not Active,Not Active,,,,
CCN(CC)CCOCCC1=CCC2CC1C2(C)C (stereo unspecified) [MYRTECAINE],Not Active,Not Active,Not Active,Not Active,Not Active,Not Active,Not Active,Not Active,Not Active,Not Active,,,,
COc1ccc2cc3[n+](cc2c1OC)CCc1cc2c(cc1-3)OCO2.[Cl-] [BERBERINE CHLORIDE],Not Active,Not Active,Not Active,,,Not Active,Not Active,Not Active,Not Active,Not Active,1280 nM,852 nM,,
COc1cc([C@@H]2c3cc4c(cc3[C@@H](O[C@@H]3O[C@@H]5CO[C@@H](C)O[C@H]5[C@H](O)[C@H]3O)[C@H]3COC(=O)[C@H]23)OCO4)cc(OC)c1O [ETOPOSIDE],Not Active,Not Active,Not Active,Not Active,Not Active,Not Active,Not Active,Not Active,Not Active,Not Active,,,,
CCC1(C)CC(=O)NC1=O (stereo unspecified) [ETHOSUXIMIDE],Not Active,Not Active,Not Active,Not Active,Not Active,Not Active,Not Active,Not Active,Not Active,Not Active,,,,
CC(C)=CCC/C(C)=C/CO [GERANIOL],Not Active,Not Active,Not Active,Not Active,Not Active,Not Active,Not Active,Not Active,Not Active,Not Active,,,,
COc1ccc(C(=O)N2CCCC2=O)cc1,Not Active,Not Active,Not Active,Not Active,Not Active,Not Active,Not Active,Not Active,Not Active,Not Active,,,,
